Tests used:
Slug in BJ-5ta = assay: Western blot of Slug in TGF-β-stimulated fibroblasts; type: cell-based; conditions: 72 h treatment
Procedure: (§1) The MCF-10A and BJ-5ta cells were seeded and cultivated for 24 h in a complete medium. One day after seeding, 30 ng/mL of TGF-β was added and cultivated for 7 days (d). TGF-β was added to induce epithelial–mesenchymal transition in tested cell lines. Lichen extract P. furfuracea (L.) Zopf and its metabolite physodic acid were added at time 0 h and then incubated for 24, 48 and 72 h for various analyses, as described in Figure 1.
(§2) Proteins isolated from MCF-10A and BJ-5ta cell lysates were determined by the Pierce® BCA Protein Assay Kit (Thermo Scientific, Rockford, IL, United States), using bovine serum albumin (BSA) as the standard, and measured by an automated Cytation™ 3 Cell Imaging Multi-Mode Reader (Biotek) at a wavelength of 570 nm. Proteins were separated on SDS-PAA gel (12%) at 100 V for 2 h and then transferred to a polyvinylidene difluoride (PVDF) membrane using the iBlot dry blotting system (Thermo Scientific, Rockford, IL, United States). […] After incubation, the membrane was again washed in TBS-Tween (3 × 5 min), and the expression of the protein was detected using a chemiluminescent ECL substrate (Thermo Fisher Scientific) and MF-ChemiBIS 2.0 Imaging System (DNR BIO-Imaging Systems, Jerusalem, Israel). The detected band was then analysed densitometrically using the Image Studio Lite software (LI-COR Biosciences, Lincoln, NE, USA). […]

MCF-10A cells = assay: Flow cytometry cell cycle phase distribution; type: cell-based, human
Procedure: as §1
The MCF-10A cells (1 × 10^4/well) were seeded in Petri dishes and stimulated with […] TGF-β for 7 days. […] After detaching, using Trypsin/EDTA, cells were harvested and pelleted by centrifugation at 1200 rpm for 5 min. Pellet was re-suspended in PBS and divided for a particular analysis. Cells were stained prior to analyses with E-Cadherin Mouse mAb (Alexa Fluor 488 conjugate) or N-cadherin Rabbit mAb (Alexa Fluor 647 conjugate) (Cell Signalling) for 15 min at RT in the dark. For the cell cycle analyses, cells were re-suspended in staining solution (final concentration 0.1% Triton X-100, 0.5 mg/mL ribonuclease A and 0.025 mg/mL propidium iodide (PI)), and incubated in the dark at RT for 30 min. All samples were analysed using a FACS Calibur flow cytometer (Becton Dickinson, San Jose, CA, USA). The IgG isotype control checking was performed for every used antibody.

[1] = system: fibronectin in TGF-β-stimulated MCF-10A cells; assay: Fibronectin expression, Western blot; type: cell-based, human; conditions: IC10 and IC50, dose-dependent manner
Procedure: as §1, §2

[2] = system: fibronectin in TGF-β-stimulated MCF-10A cells; assay: Fibronectin expression, immunofluorescence; type: cell-based, human; conditions: IC10, TGF-β-stimulated MCF-10A
Procedure: as §1
The MCF-10A cells at a density of 2 × 10^3/cm^2, plated on 22 mm^2 glass coverslips, were stimulated for 7 days with 30 ng/mL of TGF-β. […] After treatment, cells were washed with PBS, fixed with 4% paraformaldehyde (pH 7.2) for 10 min, permeabilised by 0.1% Triton X-100 (Sigma-Aldrich) for 10 min at RT and then washed three) times with PBS for 5 min. Glass coverslips were then incubated with Swine serum (1:30) for 30 min for blocking non-specific binding. Primary antibodies were diluted according to the manufacturer’s instructions (Table 2) and transferred to coverslips for 90 min. […] All coverslips were mounted in Vectashield (Cole-Parmer, Illinois, USA) and immunofluorescence pictures were taken with the same exposition settings by the Nikon Eclipse 90i fluorescence microscope (Nikon, Tokyo, Japan) equipped with filter cubes for FITC and DAPI. Images were then analysed using ImageJ (NIH) software.

[3] = 24 h, IC10, in the presence of 30 ng/mL TGF-β
[4] = 24 h, treatment alone (IC10 of PSE/Phy, or TGF-β 30 ng/mL)
[5] = 48 h, IC10, in the presence of 30 ng/mL TGF-β
[6] = 48 h, treatment alone (IC10 of PSE/Phy, or TGF-β 30 ng/mL)
[7] = 72 h, IC10, in the presence of 30 ng/mL TGF-β
[8] = 72 h, treatment alone (IC10 of PSE/Phy, or TGF-β 30 ng/mL)

CCCCCC(=O)Cc1cc(O)cc2c1C(=O)Oc1cc(O)c(C(=O)O)c(CCCCC)c1O2 [Phy, physodic acid]
Slug protein (Slug in BJ-5ta): downregulation
G1 cell cycle phase distribution (MCF-10A cells; [3]): 73.45 ± 0.69
G2/M cell cycle phase distribution (MCF-10A cells; [3]): 13.25 ± 2.08
S cell cycle phase distribution (MCF-10A cells; [3]): 12.20 ± 2.69
Sub G0 cell cycle phase distribution (MCF-10A cells; [3]): 1.10 ± 0.07
G1 cell cycle phase distribution (MCF-10A cells; [4]): 73.25 ± 0.37
G2/M cell cycle phase distribution (MCF-10A cells; [4]): 13.85 ± 0.61
S cell cycle phase distribution (MCF-10A cells; [4]): 12.05 ± 0.86
Sub G0 cell cycle phase distribution (MCF-10A cells; [4]): 0.86 ± 0.12
G1 cell cycle phase distribution (MCF-10A cells; [5]): 89.05 ± 1.18^Δ
G2/M cell cycle phase distribution (MCF-10A cells; [5]): 5.78 ± 1.16
S cell cycle phase distribution (MCF-10A cells; [5]): 3.36 ± 0.27
Sub G0 cell cycle phase distribution (MCF-10A cells; [5]): 1.82 ± 0.24
G1 cell cycle phase distribution (MCF-10A cells; [6]): 88.15 ± 0.53
G2/M cell cycle phase distribution (MCF-10A cells; [6]): 5.06 ± 1.00
S cell cycle phase distribution (MCF-10A cells; [6]): 4.23 ± 0.48
Sub G0 cell cycle phase distribution (MCF-10A cells; [6]): 2.54 ± 0.04
G1 cell cycle phase distribution (MCF-10A cells; [7]): 89.75 ± 0.86^Δ
G2/M cell cycle phase distribution (MCF-10A cells; [7]): 4.34 ± 1.27^Δ
S cell cycle phase distribution (MCF-10A cells; [7]): 3.14 ± 0.52
Sub G0 cell cycle phase distribution (MCF-10A cells; [7]): 2.77 ± 0.94
G1 cell cycle phase distribution (MCF-10A cells; [8]): 88.50 ± 1.14
G2/M cell cycle phase distribution (MCF-10A cells; [8]): 3.99 ± 0.80
S cell cycle phase distribution (MCF-10A cells; [8]): 5.45 ± 2.26
Sub G0 cell cycle phase distribution (MCF-10A cells; [8]): 2.06 ± 0.35
cell cycle phase distribution versus control or TGF-β alone (MCF-10A cells; IC10, absence or presence of TGF-β 30 ng/mL, 24, 48 and 72 h): no significant differences
levels of fibronectin, Western blot [1]: downregulated
fibronectin expression, immunofluorescence [2]: downregulation

— paper PMC8000760, “Potential Effect of Pseudevernia furfuracea (L.) Zopf Extract and Metabolite Physodic Acid on Tumour Microenvironment Modulation in MCF-10A Cells” (Biomolecules, 2021)
